Measured values as given in PubChem BioAssay (NCI).
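Step 1: Grow cells in 96-well plates. Step 2: Expose to compound for 48 hours at 5 concentrations. Step 3: Interpolate endpoints linearly; if unreached, use highest concentration. TGI is the concentration that stops growth completely.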

Assays:
Assay in all cases: NCI-60 cell line screen, 48 h
[1] = test system: 786-0 renal
[2] = test system: A498 renal
[3] = test system: A549 NSCLC
[4] = test system: ACHN renal
[5] = test system: CAKI-1 renal
[6] = test system: CCRF-CEM leukemia
[7] = test system: COLO 205 colon
[8] = test system: DLD-1 colon
[9] = test system: DMS 114 small cell lung
[10] = test system: DMS 273 small cell lung
[11] = test system: EKVX NSCLC
[12] = test system: HCC-2998 colon
[13] = test system: HCT-116 colon
[14] = test system: HL-60(TB) leukemia
[15] = test system: HOP-18 NSCLC
[16] = test system: HOP-62 NSCLC
[17] = test system: HOP-92 NSCLC
[18] = test system: HT29 colon
[19] = test system: IGROV1 ovarian
[20] = test system: K-562 leukemia
[21] = test system: KM12 colon
[22] = test system: KM20L2 colon
[23] = test system: LOX IMVI melanoma
[24] = test system: LXFL 529 NSCLC
[25] = test system: M14 melanoma
[26] = test system: M19-MEL melanoma
[27] = test system: MALME-3M melanoma
[28] = test system: MOLT-4 leukemia
[29] = test system: NCI-H226 lung
[30] = test system: NCI-H23 lung
[31] = test system: NCI-H460 lung
[32] = test system: NCI-H522 lung
[33] = test system: OVCAR-3 ovarian
[34] = test system: OVCAR-4 ovarian
[35] = test system: OVCAR-5 ovarian
[36] = test system: OVCAR-8 ovarian
[37] = test system: RPMI-8226 leukemia
[38] = test system: RXF 393 renal
[39] = test system: RXF-631 renal
[40] = test system: SF-268 CNS
[41] = test system: SF-295 CNS
[42] = test system: SF-539 CNS
[43] = test system: SK-MEL-2 melanoma
[44] = test system: SK-MEL-28 melanoma
[45] = test system: SK-MEL-5 melanoma
[46] = test system: SK-OV-3 ovarian
[47] = test system: SN12C renal
[48] = test system: SNB-19 CNS
[49] = test system: SNB-75 CNS
[50] = test system: SNB-78 CNS
[51] = test system: SR leukemia
[52] = test system: SW-620 colon
[53] = test system: TK-10 renal
[54] = test system: U251 CNS
[55] = test system: UACC-257 melanoma
[56] = test system: UACC-62 melanoma
[57] = test system: UO-31 renal
[58] = test system: XF 498 CNS
[59] = test system: HCT-15 colon

Measured: TGI

O=C(OCc1ccccc1)n1cccc1
not listed: [59]
> 100 µM: all other assays above

C=CCC1C(=O)CC2(C)C(CC=C)C(=O)CC12C (centres undefined)
not listed: [2] | [9] | [38] | [40] | [50]
> 100 µM: all other assays above

FC(F)(F)c1nc(Br)[nH]c1C(F)(F)F
91.9 µM: [16]
71.7 µM: [17]
93.2 µM: [15]
not listed: [2] | [32]
> 100 µM: all other assays above
